Earlier results on 6 compounds are cited in patent publication US8163312B2, “Herbal formulation for prevention and treatment of diabetes and associated complications” (Innoveda Biological Solutions (P) Ltd., priority 2008, dated 2012).

The target in one data set is T1, PPAR-alpha (Homo sapiens, UniProt Q07869).
T1 construct: host or cells: human embryonic kidney 293 cells
T1 sequence (Q07869 1-468): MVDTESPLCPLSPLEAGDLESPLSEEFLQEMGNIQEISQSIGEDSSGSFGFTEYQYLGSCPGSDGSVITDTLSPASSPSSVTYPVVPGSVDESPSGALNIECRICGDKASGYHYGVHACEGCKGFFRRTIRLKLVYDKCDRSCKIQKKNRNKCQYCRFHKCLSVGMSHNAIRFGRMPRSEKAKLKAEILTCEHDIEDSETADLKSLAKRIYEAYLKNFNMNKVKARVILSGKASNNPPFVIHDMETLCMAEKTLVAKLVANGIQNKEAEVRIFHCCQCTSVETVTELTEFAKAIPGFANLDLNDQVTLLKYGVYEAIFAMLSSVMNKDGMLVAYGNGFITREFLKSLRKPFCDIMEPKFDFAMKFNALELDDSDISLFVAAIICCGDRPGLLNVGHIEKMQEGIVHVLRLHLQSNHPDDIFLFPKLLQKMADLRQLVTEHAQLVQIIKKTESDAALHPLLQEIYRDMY
The settings on record: selective PPAR-alpha antagonist added.

For the next data set, the system named is mice. The following applies: sanjoinine-A given as one unit.
In data set [1] the test system is alloxan induced diabetic rats.

As for `CC(C)c1ccc2c(c1)c(SC(C)(C)C)c(CC(C)(C)C(=O)O)n2Cc1ccc(Cl)cc1` [MK-886], at PPAR-alpha, the “effects of SO extract and mangiferin on PPAR-alpha luciferase and lipoprotein lipase” value is on record as “completely suppressed”.

In the case of `CN(C)CCCN1c2ccccc2Sc2ccc(Cl)cc21` [chlorpromazine], the relative sedative potency in the data set on mice was 5.

As to `COc1cc(/C=C/C(=O)CC(=O)/C=C/c2ccc(O)c(OC)c2)ccc1O` [curcumin], in data set [1], the “activity of SDH (sorbitol dehydrogenase)” value is “lowered significantly”; the “blood sugar, Hb and glycosylated hemoglobin levels” value is “reduced”; the “oxidative stress (levels of TBRAS)” value was “reduced the oxidative stress”.

Consider `COc1cc2ccnc3c2c(c1OC)-c1ccccc1C3=O` [lysicamine], for which the relative sedative potency with mice is on record as 6.5.

For `CC(C)C[C@@H]1NC(=O)[C@@H](NC(=O)[C@H](Cc2ccccc2)N(C)C)[C@H](C(C)C)Oc2ccc(cc2)/C=C\NC1=O` [sanjoinine-A], the relative sedative potency result in the data set with mice is “one”.

Turning to sanjoinine-Ahl, the relative sedative potency with mice is given as 3.
